In US11453674B2, “Heterocyclic compound, preparation method and use thereof in medicine” (SUZHOU SINOVENT PHARMACEUTICALS CO., LTD., priority 2019, dated 2022):

Target: T1, OAT1 (Homo sapiens, UniProt Q4U2R8)
T1 construct: host or cells: HEK293/OAT1 (hygromycin B selection)
T1 sequence (Q4U2R8 1-563): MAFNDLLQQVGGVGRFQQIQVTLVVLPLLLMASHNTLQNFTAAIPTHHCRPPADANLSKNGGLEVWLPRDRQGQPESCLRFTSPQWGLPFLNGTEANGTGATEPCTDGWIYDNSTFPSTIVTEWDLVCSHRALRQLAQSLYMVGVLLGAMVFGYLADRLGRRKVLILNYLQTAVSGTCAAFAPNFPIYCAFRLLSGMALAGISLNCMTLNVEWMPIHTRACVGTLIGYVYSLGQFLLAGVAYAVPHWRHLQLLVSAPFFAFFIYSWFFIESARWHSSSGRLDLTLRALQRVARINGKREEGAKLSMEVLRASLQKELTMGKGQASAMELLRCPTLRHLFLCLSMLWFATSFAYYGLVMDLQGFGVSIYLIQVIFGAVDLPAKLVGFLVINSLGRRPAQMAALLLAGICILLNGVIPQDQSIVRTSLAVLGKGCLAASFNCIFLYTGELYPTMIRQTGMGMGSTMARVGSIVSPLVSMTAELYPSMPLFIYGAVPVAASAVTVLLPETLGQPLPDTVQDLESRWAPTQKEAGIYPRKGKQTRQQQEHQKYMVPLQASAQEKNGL
Test: Inhibition of 6-carboxyfluorescein uptake in HEK293/OAT1 cells
Type: cell-based
Conditions: ratio of OAT1 IC50 to hURAT1 IC50 (selectivity)
Experimental: 1. Reagents and Consumables
2. Culture Media and Solutions
Thaw medium: 90% DMEM+10% FBS+1× Pen/Strep, preserved at 4° C. for later use.
Culture medium: 90% DMEM+10% FBS+1× Pen/Strep+100 μg/mL Hygromycin B, preserved at 4° C. for later use.
5× Matrigel: 1 vial of Matrigel was thawed overnight at 4° C., then diluted to 500 mL with cold DMEM. The resulting solution was preserved at 4° C. for later use after subpackaging.
Uptake assay buffer: 487.5 mL HBSS buffer was mixed with 12.5 mL 1M HEPES, with the final HEPES concentration being 25 mM. This was prepared right before the experiment.
30 mM probenecid: 2 mg of the powder was dissolved in 233.62 μL of 100% DMSO. The resulting solution was preserved at −20° C. for later use after subpackaging.
The resulting solution was preserved at −20° C. for later use after subpackaging.
The resulting solution was preserved away from light at 4° C. for later use after subpackaging.
Envision multimode plate reader (with parameters as follows)
Emission wavelength: 590 nm
4. Experimental Procedures
The cells were quickly taken out from a liquid nitrogen tank and shaken in a water bath at 37° C. until completely thawed. The cell suspension was quickly added to a pre-heated culture medium and centrifuged at 1000 rpm for 5 min. The supernatant was discarded. A fresh pre-heated culture medium was added for resuspension. The cell suspension was transferred into a 100 mm dish and incubated at 37° C. at 5% CO2.
Typically, the cells were passaged every 2-3 days in a ratio of 1:3 to 1:5.
5× Matrigel was added to a 384-well cell plate at 5 μL/well for incubation in an incubator at 37° C. for 30 min, followed by digestion.
Cells were collected after digestion, counted, resuspended at 1×10^6 cells/mL using a culture medium, and added to a coated plate at 60 μL/well by using a Multidrop Combi to give a cell density of 6×10^4 cells/well, followed by incubating overnight at 37° C. at 5% CO2.
3) Preparation of Uptake Assay Buffer
On the day of experiment, fresh buffer was prepared as needed.
4) Preparation of Compounds (Using ECHO)
Working solutions of 11 concentrations were prepared for plotting a curve with stock solutions of 3 concentrations using PlateMap. The 3 concentrations were 30 mM, 0.3 mM, 0.003 mM, all formulated in DMSO.
5) Preparation of a Mixed Solution of 6-Carboxyfluorescein (6 μM) and Compounds
According to amount used, 6-carboxyfluorescein (1 mM) was diluted with uptake assay buffer to give a diluted 6-carboxyfluorescein solution (6 μM). […] The mixture was preserved away from light for later use. The concentration of DMSO was 2% at this time.
The cells were incubated overnight before the culture medium was carefully removed. Then 80 μL of uptake assay buffer was added to each well at room temperature for washing the cells 3 times. After washing, 20 μL of uptake assay buffer was added to each well.
The mixed solution of 6-CF (6 μM) and compounds, prepared in step 5, was transferred to a cell plate at 20 μL/well with Bravo. The mixed solution was centrifuged at 400 rpm for 1 min, and incubated away from light at room temperature for 10 min. At this time, the concentration of 6-CF became 3 μM, the concentration of the compound became the final concentration, and the concentration of DMSO became 1%.
The cells were washed 3 times with pre-cooled uptake assay buffer at 80 μL/well, to remove unbound 6-CF.
The plate was read on the Envision. The data were recorded and processed to calculate IC50.
According to the fluorescence signals of HPE and ZPE on each cell plate, the inhibition rate (%) of the compound in each well on the cell plate was calculated.
The XLfit software was used to plot the curve for calculating the IC50 values of the compounds. The IC50 value of the positive compound was also one of the criteria for controlling the quality of each experiment.

SMILES | IC50, OAT1/IC50, hURAT1
CCc1nc2ncc(Br)cn2c1C(=O)c1cc(Br)c(O)c(Br)c1 [Example 3, (6-bromo-2-ethylimidazo[1,2-a]pyrimidin-3-yl)(3,5-dibromo-4-hydroxyphenyl)methanone] | 13.8
CCc1nc2ncc(F)cn2c1C(=O)c1cc(Br)c(O)c(Br)c1 [Example 4, (3,5-dibromo-4-hydroxyphenyl)(2-ethyl-6-fluoroimidazo[1,2-a]pyrimidin-3-yl)methanone] | 55.0
CCc1nc2ncc(C(F)(F)F)cn2c1C(=O)c1cc(Br)c(O)c(Br)c1 [Example 5, (3,5-dibromo-4-hydroxyphenyl)(2-ethyl-6-(trifluoromethyl)imidazo[1,2-a]pyrimidin-3-yl)methanone] | 34.4
CCc1nc2ncc(Cl)cn2c1C(=O)c1cc(Br)c(O)c(Br)c1 [Example 6, (6-chloro-2-ethylimidazo[1,2-a]pyrimidin-3-yl)(3,5-dibromo-4-hydroxyphenyl)methanone] | 33.6
CCc1nc2cc(C(F)(F)F)ncn2c1C(=O)c1cc(Br)c(O)c(Br)c1 [Example 7, (3,5-dibromo-4-hydroxyphenyl)(2-ethyl-7-(trifluoromethyl)imidazo[1,2-c]pyrimidin-3-yl)methanone] | 14.2
CCn1nc2ccc(F)cc2c1C(=O)c1cc(Br)c(O)c(Br)c1 [Example 9, (3,5-dibromo-4-hydroxyphenyl)(2-ethyl-5-fluoro-2H-indazol-3-yl) methanone] | 7.6
CCc1nc2ncc(F)cn2c1C(=O)c1cc(Br)c(O)c(C#N)c1 [Example 14, 3-bromo-5-(2-ethyl-6-fluoroimidazo[1,2-a]pyrimidine-3-carbonyl)-2-hydroxybenzonitrile] | 3.5
CCn1nc2ccncc2c1C(=O)c1cc(Br)c(O)c(Br)c1 [Example 16, (3,5-dibromo-4-hydroxyphenyl)(2-ethyl-2H-pyrazolo[4,3-c]pyridin-3-yl)methanone] | 17.4
CCc1nc2ncc(F)cn2c1C(=O)c1cc(Br)c(O)c(C(F)(F)F)c1 [Example 18, (3-bromo-4-hydroxy-5-(trifluoromethyl)phenyl)(2-ethyl-6-fluoroimidazo[1,2-a]pyrimidin-3-yl)methanone] | 24.5
CCc1nc2ncccn2c1C(=O)c1cc(Br)c(O)c(Br)c1 [Example 20, 2,6-dibromo-4-([2-ethylimidazo[1,2-a]pyrimidin-3-yl]carbonyl) phenol] | 8.0
CCc1nc2cc(Cl)ncn2c1C(=O)c1cc(Br)c(O)c(Br)c1 [Example 21, (7-chloro-2-ethylimidazo[1,2-f]pyrimidin-3-yl)(3,5-dibromo-4-hydroxyphenyl)methanone] | 3.8
CCc1nc2ncccn2c1C(=O)c1cc(Br)c(O)c(C#N)c1 [Example 22, 3-bromo-5-(2-ethylimidazo[1,2-a]pyrimidine-3-carbonyl)-2-hydroxybenzonitrile] | 2.0
CCc1nc2ncccn2c1C(=O)c1cc(Br)c(O)c(C(F)(F)F)c1 [Example 23, (3-bromo-4-hydroxy-5-(trifluoromethyl)phenyl)(2-ethylimidazo[1,2-a]pyrimidin-3-yl)methanone] | 5.2
